In PubChem BioAssay (NCI):
Values joined by “and” are separate entries in the source; they are usually repeats but may differ in a detail not shown here. Equal entries are not always repeated.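 Tested at 5 concentrations; 48 h exposure; 96-well plates; endpoints linearly interpolated, else capped at highest concentration. Here, GI50 denotes the concentration required for 50% inhibition of growth. TGI is the concentration that stops growth completely.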

Legend:
Test in all cases: NCI-60 cell line screen, 48 h
SR leukemia = tested on: SR leukemia
OVCAR-8 ovarian = tested on: OVCAR-8 ovarian
HT29 colon = tested on: HT29 colon
HCT-15 colon = tested on: HCT-15 colon
OVCAR-5 ovarian = tested on: OVCAR-5 ovarian
UACC-257 melanoma = tested on: UACC-257 melanoma
SK-MEL-5 melanoma = tested on: SK-MEL-5 melanoma
UACC-62 melanoma = tested on: UACC-62 melanoma
RPMI-8226 leukemia = tested on: RPMI-8226 leukemia
HCC-2998 colon = tested on: HCC-2998 colon

Row | Structure (SMILES) | TGI (SR leukemia) | TGI (OVCAR-8 ovarian) | TGI (HT29 colon) | TGI (HCT-15 colon) | TGI (OVCAR-5 ovarian) | TGI (UACC-257 melanoma) | TGI (SK-MEL-5 melanoma) | TGI (UACC-62 melanoma) | TGI (RPMI-8226 leukemia) | GI50 (SR leukemia) | GI50 (HCT-15 colon) | GI50 (SK-MEL-5 melanoma) | TGI (HCC-2998 colon) | GI50 (RPMI-8226 leukemia) | GI50 (OVCAR-8 ovarian) | GI50 (HT29 colon) | GI50 (OVCAR-5 ovarian) | GI50 (UACC-62 melanoma) | GI50 (HCC-2998 colon) | GI50 (UACC-257 melanoma)
1 | O=C(O)CCCl | > 5000 µM | > 5000 µM | > 5000 µM | > 5000 µM | > 5000 µM | > 5000 µM | > 5000 µM | 4740 µM | > 5000 µM |  |  |  |  |  |  |  |  |  |  | 
2 | O=C1NC(N/N=C\C(O)C(O)C(O)CO)=N/C1=C/c1ccccc1 (stereo unspecified) | > 100 µM | > 100 µM | > 100 µM | > 100 µM | > 100 µM | > 100 µM | > 100 µM |  | > 100 µM | > 100 µM and 44.1 µM | > 100 µM and 35.5 µM | > 100 µM and 38.9 µM | > 100 µM | > 100 µM and 33.7 µM |  |  |  |  |  | 
3 | COc1ccc2oc(=N)c(C(=O)Nc3cccc4ccccc34)cc2c1 | 28.5 µM |  | > 100 µM | > 100 µM | > 100 µM | > 100 µM | > 100 µM | 17.1 µM | 57.9 µM |  |  |  | > 100 µM |  |  |  |  |  |  | 
4 | CC[n+]1cnc(N)c2c(-c3ccc(Cl)cc3)cn(-c3ccc(C)cc3)c21 | 19.1 µM | 32.7 µM | 17.7 µM | 32.6 µM | 29.7 µM | 6.06 µM | 22 µM | 24.3 µM |  |  |  |  | 14.8 µM |  |  |  |  |  |  | 
5 | COC(=O)c1cn(CCCC(=O)O)nn1 |  | > 100 µM | > 100 µM | > 100 µM |  | > 100 µM | > 100 µM | > 100 µM |  |  |  |  | > 100 µM |  |  |  |  |  |  | 
6 | CCCCNC1CCC2(SCCS2)c2[nH]c3ccccc3c21 (stereo unspecified) | 39.6 µM | 66.3 µM | > 100 µM |  | > 100 µM | 15.1 µM | 18 µM | > 83.8 µM | > 43.1 µM |  |  |  | 38.8 µM |  |  |  |  |  |  | 
7 | c1ccc(CNC2CC(NCc3ccccn3)CC(NCc3ccccn3)C2)nc1 (stereo unspecified) |  | 8.59 µM and 25 µM and 9.53 µM | 14.5 µM and 25 µM and 3.81 µM | > 75.2 µM and 25 µM and > 100 µM | 14.4 µM and 25 µM and 8.94 µM | 21.4 µM and 9.81 µM | 5.52 µM and 7.49 µM and 3.68 µM | 5.27 µM and 12.1 µM and 3.53 µM | 9.64 µM and 25 µM and 13.5 µM |  |  | 1.88 µM | 3.72 µM | 2.96 µM and 6.93 µM and 3.51 µM | 2.88 µM and 7.94 µM and 3.62 µM | 3.19 µM and 8.17 µM and 1.96 µM | 3.66 µM and 14.4 µM and 2.89 µM | 2.3 µM and 4.72 µM and 1.83 µM |  | 
8 | COc1ccc(-c2nc(N)c(C#N)c3c2CCS(=O)(=O)c2ccc(C)cc2-3)cc1OC |  | > 100 µM | 92.2 µM | > 100 µM | > 100 µM | > 100 µM | > 100 µM | 51.7 µM |  |  |  |  | > 100 µM |  |  |  |  |  |  | 
9 | COC(=O)[C@H](Cc1ccccc1)NC(=O)c1ccc(CNC(=O)/C=C/c2ccc(-c3ccccc3)cc2)cc1 |  | > 100 µM | > 100 µM | > 100 µM | > 100 µM | > 100 µM | > 100 µM | > 100 µM | > 100 µM |  |  |  | > 100 µM |  |  |  |  |  |  | 
10 | Cc1nc2c(=S)[nH]ncc2[nH]1 |  | > 100 µM | > 100 µM | > 100 µM | > 100 µM | > 100 µM | > 100 µM | > 100 µM | > 100 µM |  |  |  | > 100 µM |  |  |  |  |  |  | 
11 | Nc1nc(N)c2ncn(CC3CCC(CO)C3)c2n1 (stereo unspecified) |  |  |  | > 100 µM | > 100 µM | > 100 µM | > 100 µM | > 100 µM | > 100 µM |  |  |  | > 100 µM |  |  |  |  |  |  | 
12 | CCC(C)[C@H](NC(=O)[C@H](Cc1ccccc1)NC(=O)N(CC)c1ccccc1)C(=O)N[C@@H](CC(C)C)C(=O)OC (stereo partly specified) |  | > 100 µM |  | > 100 µM | > 100 µM | 74.8 µM | 59.8 µM | > 100 µM | 38 µM |  |  |  | > 100 µM |  |  |  |  |  |  | 
13 | CCC1(O)CC(OC2CC(N(C)C)C(OC3CC4OC5CC(=O)C(C)OC5OC4C(C)O3)C(C)O2)c2c(cc3c(c2O)C(=O)c2c(O)ccc(O)c2C3=O)C1C(=O)OC (stereo unspecified) |  |  |  |  |  |  |  | 0.0164 µM and 0.0136 µM |  |  |  |  | 0.0607 µM and 0.0199 µM and < 0.0465 µM |  |  |  | 0.00138 µM and 0.00225 µM and 0.00943 µM | 0.00479 µM and 0.00857 µM | 0.021 µM and 0.01 µM | 
14 | Nc1nc2c(=O)c3ccccc3sc2s1 | > 100 µM | 50.7 µM | > 100 µM | > 100 µM | > 100 µM | > 100 µM | > 100 µM | 84 µM | > 100 µM |  |  |  |  |  |  |  |  |  |  | 
15 | FC(F)(F)c1ccc(-c2nc(-c3nc4cc(Cl)c(Cl)cc4[nH]3)c3ccccn23)cc1 | > 100 µM | > 100 µM |  | > 100 µM | > 100 µM | > 100 µM | > 100 µM | > 100 µM | > 100 µM | > 100 µM | 30.5 µM | 4.2 µM | > 100 µM | > 100 µM | 6.61 µM |  | > 100 µM | 15.6 µM | > 100 µM | > 100 µM
16 | CC1(C)O[C@H]2Cn3c(c(C#N)c4ccccc43)[C@H]2O1 | > 100 µM |  | > 100 µM | > 100 µM | > 100 µM |  | > 100 µM | > 100 µM | > 100 µM |  |  |  | > 100 µM |  |  |  |  |  |  | 
17 | Cc1ccc(S(=O)(=O)c2scc(-c3ccccc3)c2C)cc1 |  | > 100 µM | > 100 µM | > 100 µM |  | > 100 µM | > 100 µM | > 100 µM | > 100 µM |  |  |  | > 100 µM |  |  |  |  |  |  | 
18 | CCC(C)[C@@H](NCc1ccccc1)[C@H](OCc1ccccc1)[C@@H]1COC(C)(C)O1 (stereo partly specified) | 60.5 µM | 45.4 µM | 23.7 µM | 31.6 µM | 90.8 µM | 38.1 µM | 29 µM | 42.3 µM | 36.1 µM |  |  |  |  |  |  |  |  |  |  | 
19 | CCOC(=O)CCCn1nnc(C(=O)OCC)c1C(=O)OCC | > 100 µM | > 100 µM | > 100 µM | > 100 µM |  | > 100 µM | > 100 µM | > 100 µM |  |  |  |  | > 100 µM |  |  |  |  |  |  | 
20 | CCCC(=O)O | 5340 µM | > 18700 µM | > 18700 µM | > 18700 µM | > 18700 µM |  | 6100 µM | 4930 µM |  |  |  | 2410 µM | > 18700 µM | 473 µM |  |  |  |  | 10800 µM | 
21 | O=C1c2ccccc2C(=O)N1n1c(Cc2ccccc2)n[nH]c1=O | > 100 µM | > 100 µM | > 100 µM | > 100 µM | > 100 µM | > 100 µM | > 100 µM | > 100 µM |  |  |  |  | > 100 µM |  |  |  |  |  |  | 
22 | C1CC2=C(C1)[Se]C(=C1Sc3nsnc3S1)[Se]2 |  | > 100 µM | > 100 µM | > 100 µM | > 100 µM | > 100 µM | > 100 µM | > 100 µM | > 100 µM |  |  |  | > 100 µM |  |  |  |  |  |  | 
